The source of these data is US20160102002A1, “WATER TREATMENT” (BWA WATER ADDITIVES UK LIMITED, priority 2014, published 2016).

One experiment has as its system Enterobacter aerogenes. Briefly: Log10 reduction of viable facultative anaerobic bacteria in dosed high-TDS suspension (serial dilution into anaerobic acid producing media vials). It counts as cell-based. Particulars: pH 7 phosphate buffer, room temperature, ppm per example. Here is the method:
(§1) A suspension of Desulfovibrio vulgaris plus Enterobacter aerogenes bacteria containing from 1×10^6 to 1×10^8 cells/mL was prepared in sterile pH 7 phosphate buffer containing varying levels of sodium chloride to give the desired total dissolved solids (TDS) concentration. Aliquots of this suspension were dosed with the indicated concentrations of phosphonium compound (a) and stabilised halogen containing composition (b) with the concentrations being measured as ppm by weight of the stated composition in the dosed suspension. The mixtures were allowed to stand at room temperature. At the designated contact times, each mixture was sampled to determine the total number of viable cells of both Desulfovibrio vulgaris and Enterobacter aerogenes by serial 10-fold dilution into API RP 38 media vials and anaerobic acid producing media vials, respectively. The vials were incubated at 37° C. for 72 hours. Results were recorded as cells per milliliter. […]
(§2) The efficacy of the treatment agents was evaluated by measuring the Log 10 Reduction of the anaerobic bacterium Desulfovibrio vulgaris and the facultative anaerobeic bacterium Enterobacter aerogenes after contact times of 1 hour and 24 hours as detailed in Tables 1 and 2. […]

In another experiment the test system is Desulfovibrio vulgaris. Briefly: Log10 reduction of viable anaerobic bacteria in dosed high-TDS suspension (serial dilution into API RP 38 media vials). It counts as cell-based. As to conditions: pH 7 phosphate buffer, room temperature, ppm per example. Here is the method: as §1, §2
Setting [1] is: TDS 100,000 mg l^-1, contact time 1 hour.
[2] abbreviates: TDS 100,000 mg l^-1, contact time 24 hours.

Molecules are shown by their SMILES.

On to `CCCCCCCCCCCCCC[P+](CCCC)(CCCC)CCCC.[Cl-]` [Example 3, tri n-butyl n-tetradecyl phosphonium chloride], for which the “Log10 Reduction Facultative Anaerobes” value with Enterobacter aerogenes (setting [1]) is recorded as 0. For the same molecule, the “Log10 Reduction Anaerobes” value in the experiment on Desulfovibrio vulgaris (setting [1]) was found to be 0.

As to `CCCCCCCCCCCCCC[P+](CCCC)(CCCC)CCCC.[Cl-]` [Example 17, tri n-butyl n-tetradecyl phosphonium chloride], the “Log10 Reduction Facultative Anaerobes” value with Enterobacter aerogenes (setting [2]) was 0. The “Log10 Reduction Anaerobes” value with Desulfovibrio vulgaris (setting [2]) is given as 0.
